Measured values: patent publication US20210363152A1, “AMINOAZINE AMIDES” (Hoffmann-La Roche Inc., priority 2018, published 2021)

target: T1, Autotaxin enzyme (ATX) (Homo sapiens, UniProt Q13822); test: In vitro ATX assay (enzymatic ATX inhibition, LPC 14:0 substrate, choline oxidase/HRP absorbance readout); format: biochemical; conditions: 0.3 mM LPC 14:0, 37° C., 4 hours, absorbance 555 nm
T1 construct: purchased Echelon Biosciences, Inc. E-4000
Procedure: • Assay buffer: 100 mM Tris-HCl, pH 9.0, 500 mM NaCl, 5 mM MgCl2, 30 μM CoCl2, 0.05% Triton X-100 • Assay buffer II: 4.5 mM 4-AAP, 2.7 mM TOOS, 21.2 U/mL HRP, 3 U/mL CO, In 50 mM Tris-HCl pH 8.0, 4.5 mM MgCl2
A compound preparation plate (Nunc 249944) was prepared by adding 30 mM stock solution (in DMSO) of test compound and performing a serial full-log dilution down to 30 nM. Two μL/well were transferred from the first compound prep plate to a compound dilution plate (Corning, 3641) and 198 μL assay buffer I was added for a […].
A 10 ng/mL solution of ATX was prepared by diluting in assay buffer I, and 80 μL/well were added to the assay plate (Corning, 3641); negative control wells contained 80 μL/well assay buffer I only (no ATX). Ten μL/well from the compound dilution plate (containing serially diluted test compound or DMSO) were added to the assay plate, which was then incubated at 37° C. for 15 minutes. A solution of LPC 14:0 was prepared in assay buffer I at 3 mM and 10 μl/well were added to the assay plate, for a final concentration of 0.3 mM LPC, and returned to 37° C. incubator for 4 hours. After 4 hour incubation, 100 μL/well of assay buffer II was added to all wells of the assay plate. The plate was incubated at RT for 15 minutes, prior to reading on FlexStation in absorbance mode, 555 nm. Results in the enzymatic ATX inhibition assay are provided for compounds of formula (I). An IC50 value of “A” is less than 100 nM, “B” is equal to or greater than 100 nM but less than 1 μM, “C” is equal to or greater than 1 μM.

Compound	IC50 [nM]
CC(C)Oc1cc(CNc2ncc(C(=O)N3CCC34COC4)cn2)cc(OC(C)C)c1 [Example 52]	< 100
CCOc1cc(CNc2ncc(C(=O)N3CCC34COC4)cn2)cc(OCC)c1 [Example 53]	< 100
O=C(c1cnc(NCc2cc(Cl)ccc2Cl)nc1)N1CCC12COC2 [Example 54]	100 to 1000
O=C(c1cnc(NCc2cccc(Cl)c2Cl)nc1)N1CCC12COC2 [Example 55]	100 to 1000
O=C(c1cnc(NC2Cc3ccc(Cl)cc3C2)nc1)N1CCC1 (stereo not drawn) [Example 56]	< 100
COC[C@@H]1CCN1C(=O)c1cnc(NC2Cc3ccc(Cl)cc3C2)nc1 (stereo partly drawn) [Example 57]	< 100
CC(C)Oc1cc(CNc2ncc(C(=O)N3CCC3C(C)(C)O)cn2)cc(OC(C)C)c1 (stereo not drawn) [Example 58]	< 100
CC(C)Oc1cc(CNc2ncc(C(=O)N3CCC3C(C)(C)O)cn2)cc(C2CC2)c1 (stereo not drawn) [Example 59]	< 100
CC(C)(O)C1CCN1C(=O)c1cnc(NC2Cc3ccc(Cl)cc3C2)nc1 (stereo not drawn) [Example 60]	< 100
O=C(c1cnc(N[C@H]2Cc3ccc(Br)cc3C2)nc1)N1CCC12COC2 [Example 61]	100 to 1000
O=C(c1cnc(N[C@@H]2Cc3ccc(Br)cc3C2)nc1)N1CCC12COC2 [Example 62]	< 100
CC(C)Oc1cc(CNc2ncc(C(=O)N3CCC34COC4)cn2)cc(N2CCC2)c1 [Example 63]	100 to 1000
CC(C)c1cc(CNc2ncc(C(=O)N3CCC3C(C)(C)O)cn2)cc(OC(F)(F)F)c1 (stereo not drawn) [Example 64]	< 100
CC(C)(O)C1CCN1C(=O)c1cnc(NCc2cc(C3CC3)cc(C3CC3)c2)nc1 (stereo not drawn) [Example 65]	< 100
CCOc1cc(CNc2ncc(C(=O)N3CCC3C(C)(C)O)cn2)cc(OC(F)(F)F)c1 (stereo not drawn) [Example 66]	< 100
CCOc1cc(CNc2ncc(C(=O)N3CCC34COC4)cn2)cc(C2CC2)c1 [Example 67]	< 100
CC(C)(O)C1CCN1C(=O)c1cnc(NCc2cc(OC(F)(F)F)cc(N3CCC3)c2)nc1 (stereo not drawn) [Example 68]	< 100
O=C(c1cnc(NCc2cccc(OC(F)(F)F)c2)cn1)N1CCC12COC2 [Example 71, 6-Oxa-1-azaspiro[3.3]heptan-1-yl(5-((3-(trifluoromethoxy)benzyl)|amino)pyrazin-2-yl)methanone]	100 to 1000
O=C(c1ccc(NCc2cccc(OC(F)(F)F)c2)nn1)N1CCC12COC2 [Example 72, 6-Oxa-1-azaspiro[3.3]heptan-1-yl(6-((3-(trifluoromethoxy)benzyl)amino)pyridazin-3-yl)methanone]	≥ 1000
O=C(c1ccc(NCc2cccc(OC(F)(F)F)c2)nc1)N1CCC12COC2 [Example 73, 6-Oxa-1-azaspiro[3.3]heptan-1-yl(6-((3-(trifluoromethoxy)benzyl)amino)pyridin-3-yl)methanone]	≥ 1000
CC(C)c1cc(CNc2cnc(C(=O)N3CCC3)cn2)cc(OC(F)(F)F)c1 [Example 74, Azetidin-1-yl(5-((3-isopropyl-5-(trifluoromethoxy)benzyl)amino)pyrazin-2-yl)methanone]	100 to 1000
CC(C)c1cc(CNc2cnc(C(=O)N3CCC34COC4)cn2)cc(OC(F)(F)F)c1 [Example 75, (5-((3-Isopropyl-5-(trifluoromethoxy)benzyl)amino)pyrazin-2-yl)(6-oxa-1-azaspiro[3.3]heptan-1-yl)methanone]	< 100
CC(C)c1cc(CNc2ccc(C(=O)N3CCC34COC4)cn2)cc(OC(F)(F)F)c1 [Example 76, (6-((3-Isopropyl-5-(trifluoromethoxy)benzyl)amino)pyridin-3-yl)(6-oxa-1-azaspiro[3.3]heptan-1-yl)methanone]	< 100
O=C(c1ccc(NCc2cc(OC(F)(F)F)cc(C3CC3)c2)nc1)N1CCC12COC2 [Example 77, (6-((3-Cyclopropyl-5-(trifluoromethoxy)benzyl)amino)pyridin-3-yl)(6-oxa-1-azaspiro[3.3]heptan-1-yl)methanone]	< 100
